Laboratory results published in ChEMBL document CHEMBL5291721, “A preclinical secondary pharmacology resource illuminates target-adverse drug reaction associations of marketed drugs” (Nat Commun, 2023).

Columns and labels:
[1] = molecular target: 3',5'-cyclic-AMP phosphodiesterase 4A (Homo sapiens, UniProt P27815); assay type: functional
[2] = molecular target: Prostaglandin G/H synthase 1 (Homo sapiens, UniProt P23219); assay type: functional
[3] = molecular target: 5-hydroxytryptamine receptor 2B (Homo sapiens, UniProt P41595); assay type: functional, cell-based
Sequence of 5-hydroxytryptamine receptor 2B (P41595 whole entry): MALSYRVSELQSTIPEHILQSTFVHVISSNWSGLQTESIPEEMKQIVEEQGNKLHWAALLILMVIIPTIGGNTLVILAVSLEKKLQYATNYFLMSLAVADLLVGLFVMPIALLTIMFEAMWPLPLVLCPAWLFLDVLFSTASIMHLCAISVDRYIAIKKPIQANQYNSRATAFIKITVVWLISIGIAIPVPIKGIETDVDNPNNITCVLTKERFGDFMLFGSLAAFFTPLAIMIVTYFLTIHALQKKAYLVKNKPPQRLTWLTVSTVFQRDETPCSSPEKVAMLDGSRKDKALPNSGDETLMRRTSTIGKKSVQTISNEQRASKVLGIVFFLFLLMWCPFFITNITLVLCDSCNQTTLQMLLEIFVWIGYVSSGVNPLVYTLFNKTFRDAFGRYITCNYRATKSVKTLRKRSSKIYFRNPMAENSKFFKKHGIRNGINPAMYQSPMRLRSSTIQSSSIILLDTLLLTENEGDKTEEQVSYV

[4] = molecular target: cGMP-inhibited 3',5'-cyclic phosphodiesterase 3A (Homo sapiens, UniProt Q14432); assay type: functional
Sequence of cGMP-inhibited 3',5'-cyclic phosphodiesterase 3A (Q14432 whole entry): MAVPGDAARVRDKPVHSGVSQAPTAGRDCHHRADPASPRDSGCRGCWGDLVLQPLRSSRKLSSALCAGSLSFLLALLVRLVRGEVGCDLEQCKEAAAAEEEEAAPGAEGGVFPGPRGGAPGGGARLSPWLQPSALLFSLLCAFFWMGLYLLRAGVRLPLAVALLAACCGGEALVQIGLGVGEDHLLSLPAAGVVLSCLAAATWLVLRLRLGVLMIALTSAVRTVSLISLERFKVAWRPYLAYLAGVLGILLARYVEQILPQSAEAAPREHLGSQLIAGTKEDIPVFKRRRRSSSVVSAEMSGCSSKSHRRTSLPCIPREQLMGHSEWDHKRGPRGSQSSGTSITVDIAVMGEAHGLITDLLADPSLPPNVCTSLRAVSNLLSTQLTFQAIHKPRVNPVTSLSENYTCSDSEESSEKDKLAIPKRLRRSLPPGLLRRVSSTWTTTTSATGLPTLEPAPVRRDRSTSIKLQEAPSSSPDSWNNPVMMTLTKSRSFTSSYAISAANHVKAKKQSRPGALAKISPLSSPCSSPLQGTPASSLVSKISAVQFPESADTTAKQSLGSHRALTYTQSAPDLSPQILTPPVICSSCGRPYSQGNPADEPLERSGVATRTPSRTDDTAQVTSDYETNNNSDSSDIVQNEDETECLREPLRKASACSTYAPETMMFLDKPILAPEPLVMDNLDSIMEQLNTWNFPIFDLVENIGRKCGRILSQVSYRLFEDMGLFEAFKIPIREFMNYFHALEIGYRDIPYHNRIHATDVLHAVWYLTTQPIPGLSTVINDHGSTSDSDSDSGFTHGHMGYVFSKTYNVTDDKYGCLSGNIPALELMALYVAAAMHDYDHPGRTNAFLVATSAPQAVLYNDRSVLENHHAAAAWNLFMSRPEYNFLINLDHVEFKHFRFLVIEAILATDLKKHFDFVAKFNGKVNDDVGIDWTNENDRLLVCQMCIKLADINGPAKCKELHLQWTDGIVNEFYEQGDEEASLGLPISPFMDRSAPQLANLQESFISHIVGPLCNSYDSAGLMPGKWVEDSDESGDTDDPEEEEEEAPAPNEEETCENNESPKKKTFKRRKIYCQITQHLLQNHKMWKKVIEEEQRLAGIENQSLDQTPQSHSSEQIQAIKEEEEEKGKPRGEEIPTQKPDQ

Acetylcholinesterase = Acetylcholinesterase (Homo sapiens, UniProt P22303); assay type: functional
Sequence of Acetylcholinesterase (P22303 whole entry): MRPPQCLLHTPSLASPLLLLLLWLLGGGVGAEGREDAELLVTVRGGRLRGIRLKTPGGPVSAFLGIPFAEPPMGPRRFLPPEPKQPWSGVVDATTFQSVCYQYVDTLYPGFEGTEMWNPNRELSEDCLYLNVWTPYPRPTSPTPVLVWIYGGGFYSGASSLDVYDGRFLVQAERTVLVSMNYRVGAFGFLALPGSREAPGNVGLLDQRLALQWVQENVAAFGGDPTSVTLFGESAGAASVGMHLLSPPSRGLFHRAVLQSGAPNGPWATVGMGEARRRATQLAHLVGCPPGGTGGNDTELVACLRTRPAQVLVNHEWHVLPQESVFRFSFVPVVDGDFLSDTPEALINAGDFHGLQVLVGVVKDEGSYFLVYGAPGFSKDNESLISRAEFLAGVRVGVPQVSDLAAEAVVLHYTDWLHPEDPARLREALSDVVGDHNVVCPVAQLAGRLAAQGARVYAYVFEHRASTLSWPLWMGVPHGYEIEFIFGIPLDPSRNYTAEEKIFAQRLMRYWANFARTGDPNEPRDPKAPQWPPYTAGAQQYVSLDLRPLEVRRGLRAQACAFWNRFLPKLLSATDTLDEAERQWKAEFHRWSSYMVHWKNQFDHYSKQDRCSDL

[5] = molecular target: T1, Amine oxidase [flavin-containing] A (Homo sapiens, UniProt P21397); assay type: functional
T1 sequence (P21397 whole entry): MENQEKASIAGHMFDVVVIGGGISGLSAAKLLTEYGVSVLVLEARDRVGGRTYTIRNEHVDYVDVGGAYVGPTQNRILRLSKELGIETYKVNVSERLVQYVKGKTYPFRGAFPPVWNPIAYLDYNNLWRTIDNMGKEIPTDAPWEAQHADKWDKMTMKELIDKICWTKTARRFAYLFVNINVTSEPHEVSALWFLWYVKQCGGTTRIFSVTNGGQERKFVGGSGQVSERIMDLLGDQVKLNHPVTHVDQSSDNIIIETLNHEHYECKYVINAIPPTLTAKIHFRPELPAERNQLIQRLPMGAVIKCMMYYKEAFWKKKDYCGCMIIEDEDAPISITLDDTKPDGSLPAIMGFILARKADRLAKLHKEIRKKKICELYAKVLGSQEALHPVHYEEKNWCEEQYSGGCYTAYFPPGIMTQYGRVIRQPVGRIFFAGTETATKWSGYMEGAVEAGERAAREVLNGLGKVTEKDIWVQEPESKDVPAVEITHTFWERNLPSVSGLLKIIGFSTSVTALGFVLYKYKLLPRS

Mu-type opioid receptor = Mu-type opioid receptor (Homo sapiens, UniProt P35372)
Sequence of Mu-type opioid receptor (P35372 whole entry): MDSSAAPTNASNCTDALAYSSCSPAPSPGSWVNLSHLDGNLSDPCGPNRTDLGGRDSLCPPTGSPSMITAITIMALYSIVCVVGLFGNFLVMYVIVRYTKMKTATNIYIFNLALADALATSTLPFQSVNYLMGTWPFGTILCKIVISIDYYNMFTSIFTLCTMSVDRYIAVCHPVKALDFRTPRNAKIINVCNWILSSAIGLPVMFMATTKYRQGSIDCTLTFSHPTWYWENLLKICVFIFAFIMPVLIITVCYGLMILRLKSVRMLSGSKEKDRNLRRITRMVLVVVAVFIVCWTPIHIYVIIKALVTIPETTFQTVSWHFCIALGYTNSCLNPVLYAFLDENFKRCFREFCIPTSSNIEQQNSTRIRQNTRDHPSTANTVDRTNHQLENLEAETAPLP

Progesterone receptor = molecular target: T2, Progesterone receptor (Homo sapiens, UniProt P06401)
T2 sequence (P06401 whole entry): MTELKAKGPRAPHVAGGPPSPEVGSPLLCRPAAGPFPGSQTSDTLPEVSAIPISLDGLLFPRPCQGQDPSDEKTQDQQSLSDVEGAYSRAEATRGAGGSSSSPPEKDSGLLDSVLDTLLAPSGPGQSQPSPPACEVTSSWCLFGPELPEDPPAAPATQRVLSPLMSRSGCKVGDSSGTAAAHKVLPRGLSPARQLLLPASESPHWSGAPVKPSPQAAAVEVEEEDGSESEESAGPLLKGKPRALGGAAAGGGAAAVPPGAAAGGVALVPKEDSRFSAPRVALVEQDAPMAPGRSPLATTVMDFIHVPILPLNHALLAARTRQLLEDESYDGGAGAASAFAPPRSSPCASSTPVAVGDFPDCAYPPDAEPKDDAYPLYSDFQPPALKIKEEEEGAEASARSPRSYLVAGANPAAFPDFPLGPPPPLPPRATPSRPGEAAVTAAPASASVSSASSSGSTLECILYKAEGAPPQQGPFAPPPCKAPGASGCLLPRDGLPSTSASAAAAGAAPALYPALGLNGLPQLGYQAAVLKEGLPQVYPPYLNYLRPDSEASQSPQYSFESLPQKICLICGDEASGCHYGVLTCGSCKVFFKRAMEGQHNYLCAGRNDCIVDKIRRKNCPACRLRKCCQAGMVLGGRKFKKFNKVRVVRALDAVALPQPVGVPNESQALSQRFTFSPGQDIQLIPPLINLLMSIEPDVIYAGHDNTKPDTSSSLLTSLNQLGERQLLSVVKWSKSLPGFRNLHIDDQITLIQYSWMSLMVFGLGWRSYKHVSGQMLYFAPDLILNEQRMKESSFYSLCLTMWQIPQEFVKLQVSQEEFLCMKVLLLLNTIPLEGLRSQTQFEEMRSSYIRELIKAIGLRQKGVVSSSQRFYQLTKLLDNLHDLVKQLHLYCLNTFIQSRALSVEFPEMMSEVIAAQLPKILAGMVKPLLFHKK

[6] = molecular target: Sodium-dependent dopamine transporter (Homo sapiens, UniProt Q01959)
Sequence of Sodium-dependent dopamine transporter (Q01959 whole entry): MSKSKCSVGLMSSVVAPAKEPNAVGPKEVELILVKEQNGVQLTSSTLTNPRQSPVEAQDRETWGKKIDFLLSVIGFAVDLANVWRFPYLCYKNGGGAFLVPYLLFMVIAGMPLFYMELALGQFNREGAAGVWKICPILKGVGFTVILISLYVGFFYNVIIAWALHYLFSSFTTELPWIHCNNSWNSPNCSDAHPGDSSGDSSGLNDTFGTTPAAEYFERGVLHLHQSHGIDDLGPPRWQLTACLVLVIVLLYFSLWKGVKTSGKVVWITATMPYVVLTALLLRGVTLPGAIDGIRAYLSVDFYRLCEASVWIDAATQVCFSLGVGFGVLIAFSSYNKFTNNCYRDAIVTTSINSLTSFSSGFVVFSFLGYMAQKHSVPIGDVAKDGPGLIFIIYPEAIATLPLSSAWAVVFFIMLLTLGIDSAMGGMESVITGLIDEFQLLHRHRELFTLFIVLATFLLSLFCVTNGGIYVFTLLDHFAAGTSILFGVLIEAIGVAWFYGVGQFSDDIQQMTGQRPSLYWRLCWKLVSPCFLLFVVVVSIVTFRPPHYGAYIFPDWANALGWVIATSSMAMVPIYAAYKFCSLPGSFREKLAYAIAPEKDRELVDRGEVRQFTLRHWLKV
Also: assay procedure not described here.

Sequence of 3',5'-cyclic-AMP phosphodiesterase 4A (P27815 whole entry): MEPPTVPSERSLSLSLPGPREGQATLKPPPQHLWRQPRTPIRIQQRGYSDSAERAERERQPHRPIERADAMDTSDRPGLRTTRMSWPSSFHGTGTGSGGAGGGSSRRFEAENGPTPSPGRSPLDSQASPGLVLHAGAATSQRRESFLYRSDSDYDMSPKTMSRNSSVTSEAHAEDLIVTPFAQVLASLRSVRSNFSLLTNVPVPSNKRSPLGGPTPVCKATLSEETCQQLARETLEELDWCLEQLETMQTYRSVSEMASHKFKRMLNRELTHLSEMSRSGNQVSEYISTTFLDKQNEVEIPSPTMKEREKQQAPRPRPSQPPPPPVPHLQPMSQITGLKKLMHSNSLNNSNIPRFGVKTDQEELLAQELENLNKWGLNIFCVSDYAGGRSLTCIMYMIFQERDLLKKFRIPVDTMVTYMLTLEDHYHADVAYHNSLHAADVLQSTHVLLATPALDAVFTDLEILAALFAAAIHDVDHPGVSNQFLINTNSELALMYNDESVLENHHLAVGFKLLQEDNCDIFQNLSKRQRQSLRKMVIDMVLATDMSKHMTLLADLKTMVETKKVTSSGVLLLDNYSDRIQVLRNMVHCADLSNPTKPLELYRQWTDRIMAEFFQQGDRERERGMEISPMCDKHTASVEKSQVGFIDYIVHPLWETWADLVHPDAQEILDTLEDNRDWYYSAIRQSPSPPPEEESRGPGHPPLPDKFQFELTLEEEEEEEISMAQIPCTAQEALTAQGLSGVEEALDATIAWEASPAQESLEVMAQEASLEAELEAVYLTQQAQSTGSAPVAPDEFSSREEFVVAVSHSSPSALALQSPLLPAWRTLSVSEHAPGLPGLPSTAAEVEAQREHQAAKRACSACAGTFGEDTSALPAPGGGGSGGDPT
Sequence of Prostaglandin G/H synthase 1 (P23219 whole entry): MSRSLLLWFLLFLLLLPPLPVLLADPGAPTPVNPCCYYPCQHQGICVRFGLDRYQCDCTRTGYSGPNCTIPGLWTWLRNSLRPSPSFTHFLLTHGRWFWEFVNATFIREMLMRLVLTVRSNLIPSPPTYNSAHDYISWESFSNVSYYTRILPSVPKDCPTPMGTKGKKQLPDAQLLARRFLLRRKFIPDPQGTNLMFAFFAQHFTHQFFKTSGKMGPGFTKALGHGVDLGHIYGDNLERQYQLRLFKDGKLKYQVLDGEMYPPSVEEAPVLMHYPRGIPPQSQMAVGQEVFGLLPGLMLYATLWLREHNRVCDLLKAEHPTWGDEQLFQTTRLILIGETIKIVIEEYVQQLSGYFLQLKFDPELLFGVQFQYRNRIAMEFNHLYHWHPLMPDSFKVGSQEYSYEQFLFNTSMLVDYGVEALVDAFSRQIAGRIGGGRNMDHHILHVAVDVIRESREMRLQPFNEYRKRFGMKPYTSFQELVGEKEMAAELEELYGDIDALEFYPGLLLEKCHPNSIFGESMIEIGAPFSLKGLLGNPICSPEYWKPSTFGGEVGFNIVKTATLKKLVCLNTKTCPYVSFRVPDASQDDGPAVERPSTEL

Row | SMILES | AC50 [1] [µM] | AC50 [2] [µM] | AC50 [3] [µM] | AC50 [4] [µM] | AC50 (Acetylcholinesterase) [µM] | AC50 [5] [µM] | AC50 (Mu-type opioid receptor) [µM] | AC50 (Progesterone receptor) [µM] | AC50 [6] [µM]
1 | CC(=O)NO [ACETOHYDROXAMIC ACID] | > 30 | 21.5 | > 30 | > 30 | > 30 | > 30 | > 30 | > 30 | > 30
2 | CC(=O)NCCCCCC(=O)O [ACEXAMIC ACID] | > 30 | > 30 | > 30 | > 30 | > 30 | > 30 | > 30 | > 30 | > 30
3 | C=C(C)CNc1ccc(C(C)C(=O)O)cc1 (stereo not drawn) [ALMINOPROFEN] | > 30 | > 30 | > 30 | > 30 | > 30 | > 30 | > 30 | > 30 | > 30
4 | O=C(O)c1ccccc1 [BENZOIC ACID] | > 30 | > 30 | > 30 | > 30 | > 30 | > 30 | > 30 | > 30 | > 30
5 | C[C@H]1O[C@@H](O[C@H]2CC[C@@]3(C)[C@H](CC[C@@H]4[C@@H]3C[C@@H](O)[C@]3(C)[C@@H](C5=CC(=O)OC5)CC[C@]43O)C2)C[C@H](O)[C@@H]1O[C@H]1C[C@H](O)[C@H](O[C@H]2C[C@H](O)[C@H](O[C@@H]3O[C@H](CO)[C@@H](O)[C@H](O)[C@H]3O)[C@@H](C)O2)[C@@H](C)O1 [DESLANOSIDE] | > 30 | > 30 | > 30 | > 30 | > 30 | > 30 | > 30 | > 30 | > 30
6 | CN[C@@H]1[C@H](O[C@H]2[C@H](O[C@H]3[C@H](O)[C@@H](O)[C@H](NC(=N)N)[C@@H](O)[C@@H]3NC(=N)N)O[C@@H](C)[C@]2(O)CO)O[C@@H](CO)[C@H](O)[C@H]1O [DIHYDROSTREPTOMYCIN] | > 30 | > 30 | > 30 | > 30 | > 30 | > 30 | > 30 | > 30 | > 30
7 | CC[C@H]1OC(=O)[C@H](C)[C@@H](O[C@H]2C[C@@](C)(OC)[C@@H](O)[C@H](C)O2)[C@H](C)[C@@H](O[C@@H]2O[C@H](C)C[C@H](N(C)C)[C@H]2O)[C@](C)(O)C[C@@H](C)[C@@H]2N[C@@H](COCCOC)O[C@H]([C@H]2C)[C@]1(C)O [DIRITHROMYCIN] | > 30 | 9.63 | > 30 | > 30 | > 30 | > 30 | > 30 | > 30 | > 30
8 | CCCCc1oc2ccc(NS(C)(=O)=O)cc2c1C(=O)c1ccc(OCCCN(CCCC)CCCC)cc1 [DRONEDARONE] | 16.8 | > 30 | > 30 | > 30 | > 30 | > 30 | 3.09 | 0.64 | 1.73
9 | CC(C(=O)O)c1cccc(Oc2ccccc2)c1 (stereo not drawn) [FENOPROFEN] | > 30 | 1.52 | > 30 | > 30 | > 30 | > 30 | > 30 | > 30 | > 30
10 | CC(C)C(=O)Oc1ccc(CO)cc1[C@H](CCN(C(C)C)C(C)C)c1ccccc1 [FESOTERODINE] | > 30 | > 30 | > 30 | > 30 | > 30 | > 30 | > 30 | > 30 | > 30
11 | CC1(C)O[C@@H]2C[C@H]3[C@@H]4C[C@H](F)C5=CC(=O)C=C[C@]5(C)[C@@]4(F)[C@@H](O)C[C@]3(C)[C@]2(C(=O)CO)O1 [FLUOCINOLONE ACETONIDE] | > 30 | > 30 | > 30 | > 30 | > 30 | > 30 | > 30 | 0.0107 | > 30
12 | O=C(O)P(=O)(O)O [FOSCARNET] | > 30 | > 30 | > 30 | > 30 | > 30 | > 30 | > 30 | > 30 | > 30
13 | C#C[C@]1(O)C=C[C@H]2[C@@H]3CCC4=CC(=O)CC[C@@H]4[C@H]3CC[C@@]21CC [GESTODENE] | > 30 | > 30 | > 30 | > 30 | > 30 | > 30 | 14.9 | 0.003 | > 30
14 | COc1ccccc1OC1(C)OC(=O)c2ccccc2O1 (stereo not drawn) [GUAIMESAL] | > 30 | > 30 | > 30 | > 30 | > 30 | > 30 | > 30 | > 30 | > 30
15 | N=C(N)N/N=C/c1c(Cl)cccc1Cl [GUANABENZ] | > 30 | > 30 | > 30 | > 30 | > 30 | 3.21 | 5.18 | > 30 | 12.8
16 | C[N+](C)(CCCCCC[N+](C)(C)C1c2ccccc2-c2ccccc21)C1c2ccccc2-c2ccccc21 [HEXAFLUORENIUM] | > 30 | > 30 | > 30 | > 30 | 0.171 | > 30 | 1.03 | > 30 | 4.5
17 | CCCCC(CC)CN1CN(CC(CC)CCCC)CC(C)(N)C1 (stereo not drawn) [HEXETIDINE] | > 30 | > 30 | > 30 | > 30 | > 30 | > 30 | 4.86 | > 30 | 4.6
18 | Cc1cc(=O)oc2cc(O)ccc12 [HYMECROMONE] | > 30 | > 30 | > 30 | > 30 | > 30 | > 30 | > 30 | > 30 | > 30
19 | COc1c2occc2c(OC)c2c(=O)cc(C)oc12 [KHELLIN] | 2.85 | > 30 | > 30 | > 30 | > 30 | > 30 | > 30 | > 30 | > 30
20 | CC(C)[C@@H]1CC[C@@H](C)C[C@H]1O [LEVOMENTHOL] | > 30 | > 30 | > 30 | > 30 | > 30 | > 30 | > 30 | > 30 | > 30
21 | COC(=O)[C@@H](N)Cc1ccc(O)c(O)c1 [MELEVODOPA] | > 30 | > 30 | > 30 | > 30 | > 30 | > 30 | > 30 | > 30 | > 30
22 | C[N+]1(C)CCCC(OC(=O)C(O)(c2ccccc2)c2ccccc2)C1 (stereo not drawn) [MEPENZOLATE] | > 30 | > 30 | > 30 | > 30 | > 30 | > 30 | > 30 | > 30 | > 30
